Earlier results in patent US20240274252A1, “Dosage Calculator” (Closed Loop Medicine Ltd., priority 2023, published 2024).
Where “and” joins values, the source holds several entries; their conditions need not be identical. Equal values may be shown once. Read-outs that look alike come from different tables or passages of the source. Values belong to the compound of their own block, whether it stands above or below them.

Tests used:
[1] = for time to peak levels: immediate release
[2] = model input parameter, FIG. 4A
[3] = not given; remark: listed apart in the source
[4] = patient population
[5] = not given; remark: listed apart in the source

risk of intracranial bleeds compared with warfarin (RELY): small reduction
SMILES: CCCCCCOC(=O)NC(=N)c1ccc(NCc2nc3cc(C(=O)N(CCC(=O)OCC)c4ccccn4)ccc3n2C)cc1 [Dabigatran etexilate]
comparison with warfarin (phase III RELY study, patients with nonvalvular AF): superior to warfarin

half-life ([1]; elimination after absorption): 12 to 17 h and 12 to 14 h | acyl glucuronides, mean share of parent drug in the plasma ([1]; equally active metabolites): ~10% | time to peak levels ([1]; after food): 3 to 4 h | time to peak levels ([1]; taken without food): approximately 1 hour | PK linearity ([1]; in vivo): linear | mean half-life ([1]; in vivo): 12 h | share of absorbed drug eliminated into urine ([1]; in vivo): 80% | variability in circulating plasma levels ([1]; inter-subject, from prodrug conversion and low GI absorption): up to 50% | remainder of the drug going into the faeces ([1]; oral): ~90% | time of peak absorption ([1]; oral): ~1 h | fraction of the drug absorbed from the GI tract ([1]; oral, after conversion from prodrug dabigatran etexilate): ~5% and 3-7% | increase in availability ([1]; pellets removed from the capsule): 75% | elimination via the kidney, share of total clearance ([1]; primary route of elimination): 80% | total and peak systemic exposure versus dose ([1]; range 50-400 mg twice daily): dose-proportional | delay of the peak by food ([1]; with food, total absorption not affected): ≤ 2 h | Ka, first order drug absorption rate constant [2]: 0.754 | Q, intercompartmental clearance [2]: 35.5 | Vc, central compartment volume [2]: 673 | Vp, peripheral compartment volume [2]: 345 | Change in Drug Level Exposure (AUC) ([3]; Amiodarone co-administration): 12% increase | Change in Drug Level Exposure (AUC) ([3]; CrCl = 30, relative to median CrCl of 69 in RE-LY): 1.8 fold increase | Change in Drug Level Exposure (AUC) ([3]; CrCl = 50, relative to median CrCl of 69 in RE-LY): 1.3 fold increase | decrease in Vd ([3]; Hb above 14.3 g · dL^−1): 4 %/1 g · dL^−1 | Change in Drug Level Exposure (AUC) ([3]; PPIs co-administration): ~13% decrease | Change in Drug Level Exposure (AUC) ([3]; Verapamil co-administration): 23% increase | Change in Drug Level Exposure (AUC) ([3]; covariate Haemoglobin): no effect on AUC | Change in Drug Level Exposure (AUC) ([3]; females compared to men): ~9% increase in females compared to men | effect on Cmax ([3]; low weight): will increase Cmax | Change in Drug Level Exposure (AUC) ([3]; patients with heart failure): ~7% increase in patients with HF | range of trough plasma levels ([4]; 110 mg dose): 25 to 160 ng/mL | range of trough plasma levels ([4]; 150 mg dose): 40 to 220 ng/mL | increase in maximum concentration, Cmax ([5]; with Quinidine): 56% | increase in total absorption ([5]; with Quinidine): 53% | increase in total exposure ([5]; with ketoconazole): ~1.4 fold | increase in total exposure ([5]; with verapamil, depending on when the drug is taken): 2.4 fold
SMILES: [H]/N=C(/N)c1ccc(NCc2nc3cc(C(=O)N(CCC(=O)O)c4ccccn4)ccc3n2C)cc1 [dabigatran]
Change in Drug Level Exposure (AUC) ([3]; Age, per year older compared to 72 yr): 0.41% increase per year older compared to 72 yr | Change in Drug Level Exposure (AUC) ([3]; South Asians compared to other ethnicities): ~26% increase in South Asians compared to other | Change in activity: chance of bleeding ([3]; coadministration of Asprin, clopidogrel): Coadministration will increase chance of bleeding | Change in Drug Level Exposure (AUC) ([3]; covariate Weight): Weight had no effect on AUC but increase in distribution
